Laboratory results reported in article PMC7782499, “Progerinin, an optimized progerin-lamin A binding inhibitor, ameliorates premature senescence phenotypes of Hutchinson-Gilford progeria syndrome” (Communications Biology, 2021).

Test system: Lmna G609G/+ mouse
Assay: Grip strength test
Assay type: in vivo
Settings: LMNA G609G/+ mice, 41-week-old, SLC-D011 for 6 weeks
Description: Fig. 4 Oral administration of SLC-D011 suppresses premature aging features. A Gross morphology of SLC-D011-treated (D011) mice at 8 weeks old. Body size of treated mouse was apparently larger than that of the untreated control (Con) mouse. B Oral administration of SLC-D011 increases body weights of Lmna^G609G/G609G mice. Compared with untreated control group, body weight of treated mouse was increased by ~35%, *p < 0.05. C Oral administration of SLC-D011 extends the life span of Lmna^G609G/G609G mouse. SLC-D011 in monoolein-based solution was treated by oral gavage (50 mg/kg, daily) from 5 weeks old. […] E Grip test of Lmna^G609G/+ mice at 41-week-old was performed after administration of SLC-D011 for 6 weeks. The test was repeated 10 times for each mouse (n > 4), **p < 0.001. Data are presented as mean ± SD. […] H Anti-aging effects of single treatment of SLC-D011 or lonafarnib were measured in HGPS patients-derived cells (AG11513, AG03199, AG11498, and AG03198, Coriell Cell Repositories). […] No unit is printed with them; the x axis reads Age (weeks). / Panel C: Ave=16.8 / Max=18 are printed beside the dashed curve of the control (Con). […]
For analysis of heart rate, mice were anesthetized with 2.5% isoflurane and monitored using LOGIQ E9 (GE Healthcare). […] Each estimate given corresponded to total reads measured ten times, excluding the minimum and the maximum from each group of animals.

## CC1(C)Oc2cc3oc(=O)ccc3cc2C[C@@H]1OC/C=C/c1ccccc1 [SLC-D011]
  Grip strength relative to LMNA +/+ (=1): 0.9456
LMNA +/+ = 100
  Force (%): 94.5577%
